# Paper PMC6010021, “Mono- and di-thiocarbamate inhibition studies of the δ-carbonic anhydrase TweCAδ from the marine diatom Thalassiosira weissflogii” (Journal of Enzyme Inhibition and Medicinal Chemistry, 2018)
# Target: T1, TweCAδ (Conticribra weissflogii, UniProt Q5U9J1)
# T1 construct: gene ca1; recombinant protein produced as reported earlier by the group
# T1 sequence (Q5U9J1 1-281): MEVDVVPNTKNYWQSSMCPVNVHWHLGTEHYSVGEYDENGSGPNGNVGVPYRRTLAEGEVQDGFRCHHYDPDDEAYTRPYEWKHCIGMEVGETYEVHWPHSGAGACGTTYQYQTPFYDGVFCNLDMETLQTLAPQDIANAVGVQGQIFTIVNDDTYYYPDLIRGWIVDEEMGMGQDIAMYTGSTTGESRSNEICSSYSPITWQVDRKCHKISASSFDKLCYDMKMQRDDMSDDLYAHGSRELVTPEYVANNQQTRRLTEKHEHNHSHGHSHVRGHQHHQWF
# Experiment: stopped-flow CO2 hydrase assay
# Assay type: biochemical
# Conditions: read-out: RR^1NCS2M (16-36) / KI (nM)^a / TweCAδ
row,Ki [nM],Structure (SMILES)
1,1140,"CCCCN(CCCC)C(=O)S [compound 3, MTC 3]"
2,> 20000,"CCOC(=O)CN(C)C(=O)S [compound 5, MTC 5]"
3,> 20000,"O=C(S)N1CCOCC1 [compound 6, MTC 6]"
4,487,"CN1CCN(NC(=O)S)CC1 [compound 7, MTC 7]"
5,129,"O=C(CN1CCN(C(=O)S)CC1)NC1CCCCC1 [compound 9, MTC 9]"
6,> 20000,"CN(Cc1ccccc1)C(=O)S [compound 10, MTC 10]"
7,997,"O=C(S)NCCc1ccccc1 [compound 11, MTC 11]"
8,67.7,"COc1ccc(CCNC(=O)S)cc1OC [compound 12, MTC 12]"
9,1510,"O=C(S)N1CCN(c2cccc(Cl)c2)CC1 [compound 13, MTC 13]"
10,1500,"O=C(S)N1CCN(c2ccc(F)cc2)CC1 [compound 14, MTC 14]"
11,1150,"O=C(S)N1CCN(c2ccc(C(F)(F)F)cc2)CC1 [compound 15, MTC 15]"
12,8410,"CN(C)CCNC(=S)S [compound 16, DTC 16]"
13,8690,"OCCCNC(=S)S [compound 17, DTC 17]"
14,7170,"OCCCCNC(=S)S [compound 18, DTC 18]"
15,8600,"OCCCCCNC(=S)S [compound 19, DTC 19]"
16,> 20000,"S=C(S)NC1CN2CCC1CC2 (stereo not shown) [compound 20, DTC 20]"
17,> 20000,"S=C(S)N[C@H]1CN2CCC1CC2 [compound 21, DTC 21]"
18,7990,"S=C(S)N[C@@H]1CN2CCC1CC2 [compound 22, DTC 22]"
19,> 20000,"OC1CCCN(C(=S)S)C1 (stereo not shown) [compound 24, DTC 24]"
20,> 20000,"O=C(O)C1CCCCN1C(=S)S (stereo not shown) [compound 25, DTC 25]"
21,8430,"O=C(O)C1CCCN(C(=S)S)C1 (stereo not shown) [compound 26, DTC 26]"
22,93.6,"O=C(O)[C@@H]1CCCN(C(=S)S)C1 [compound 27, DTC 27]"
23,556,"O=C(O)[C@H]1CCCN(C(=S)S)C1 [compound 28, DTC 28]"
24,8980,"O=C(O)C1CCN(C(=S)S)CC1 [compound 29, DTC 29]"
25,783,"CC(=O)NC1CCCN(C(=S)S)C1 (stereo not shown) [compound 30, DTC 30]"
26,> 20000,"CC1COCCN1C(=S)S (stereo not shown) [compound 32, DTC 32]"
27,> 20000,"O=C(O)C1COCCN1C(=S)S (stereo not shown) [compound 33, DTC 33]"
28,791,"O=C(CN1CCN(C(=S)S)CC1)NC1CCCCC1 [compound 34, DTC 34]"
29,897,"S=C(S)NCCc1ccccc1 [compound 35, DTC 35]"
30,704,"NS(=O)(=O)c1ccc(CCNC(=S)S)cc1 [compound 36, DTC 36]"

row,Structure (SMILES),Ki [nM]
1,"CCCN(CCC)C(=O)S [compound 1, MTC 1]",807
2,"CCCCN(CC)C(=O)S [compound 2, MTC 2]",783
3,"CC(C)CN(CC(C)C)C(=O)S [compound 4, MTC 4]",> 20000
4,"S=C(S)N1CCCCC1 [compound 23, DTC 23]",> 20000
